The results in this text go back to patent US20240300932A1, “N-PHENYLIMINE DERIVATIVE AND PREPARATION METHOD AND USE THEREOF” (Guizhou University, priority 2023, published 2024).

Common to all, as to assay: Post-emergence herbicidal activity test (stem and leaf spray, pot culture)
Holding throughout (assay type): in vivo
Common to all, as to details: 3 weeks after spraying

Experiment [1] deals with Trifoliumre pensL. Put shortly:
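Pot-grown weeds in loam (pH 7), greenhouse at 20–30 °C, sprayed once post-emergence at the 2–3-leaf stage. Compound in acetone with Tween 80 plus methyl oleate oil (1.5 L/ha), applied at 10, 5 and 2.5 g/mu by spray tower. Effect scored 3 weeks after spraying, averaged over three repeats.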

Experiment [2] has as its system Portulaca oleracea. The procedure, abridged: (§1)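 Foliar spray, 2–3-leaf stage, 10/5/2.5 g/mu; acetone/Tween 80 + methyl oleate 1.5 L/ha. Greenhouse 3 wk, 20–30 °C. Score: fresh-wt control, grade 5 ≥85% … grade 0 <5%.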
Experiment [3] has as its system Echinochloa crusgalli. The procedure, abridged:
as §1

Experiment [4] concerns Amaranthus retroflexus. Put shortly:
as §1

In experiment [5] the test system is Setaria viridis. Put shortly: as §1
The test system of experiment [6] is Abutilon theophrasti. Put shortly:
as §1

In the case of `O=C1C2=C(CCCC2)C(=O)N1c1cc(OCc2nc(-c3ccccc3F)no2)c(Cl)cc1F` [Compound A12], the “Post-emergence herbicidal activity, Trifoliumre pensL. (grade)” value is 4 (Grade 4: the growth control rate is greater than or equal to 60% and less than 85%) in experiment [1] (dosage 2.5 g/mu); 5 (Grade 5: the growth control rate is greater than or equal to 85%) in experiment [1] (dosage 5 g/mu); 5 (Grade 5: the growth control rate is greater than or equal to 85%) in experiment [1] (dosage 10 g/mu). Also, the “Post-emergence herbicidal activity, P. oleracea (grade)” value is 4 (Grade 4: the growth control rate is greater than or equal to 60% and less than 85%) in experiment [2] (dosage 2.5 g/mu); 5 (Grade 5: the growth control rate is greater than or equal to 85%) in experiment [2] (dosage 5 g/mu); 5 (Grade 5: the growth control rate is greater than or equal to 85%) in experiment [2] (dosage 10 g/mu). The “Post-emergence herbicidal activity, E. crusgalli (grade)” value in experiment [3] (dosage 2.5 g/mu) was 1 (Grade 1: the growth control rate is greater than or equal to 5% and less than 20%); in experiment [3] (dosage 5 g/mu), 2 (Grade 2: the growth control rate is greater than or equal to 20% and less than 40%); in experiment [3] (dosage 10 g/mu), 3 (Grade 3: the growth control rate is greater than or equal to 40% and less than 60%). In addition, the “Post-emergence herbicidal activity, A. retroflexus (grade)” value in experiment [4] (dosage 2.5 g/mu), in experiment [4] (dosage 5 g/mu) and in experiment [4] (dosage 10 g/mu) was 5 (Grade 5: the growth control rate is greater than or equal to 85%) throughout. Also, the “Post-emergence herbicidal activity, S. viridis (grade)” value in experiment [5] (dosage 2.5 g/mu) is 2 (Grade 2: the growth control rate is greater than or equal to 20% and less than 40%); in experiment [5] (dosage 5 g/mu), 3 (Grade 3: the growth control rate is greater than or equal to 40% and less than 60%); in experiment [5] (dosage 10 g/mu), 4 (Grade 4: the growth control rate is greater than or equal to 60% and less than 85%). Besides, the “Post-emergence herbicidal activity, A. theophrasti (grade)” value in experiment [6] (dosage 2.5 g/mu), in experiment [6] (dosage 5 g/mu) and in experiment [6] (dosage 10 g/mu) was 5 (Grade 5: the growth control rate is greater than or equal to 85%) each time.

In the case of `O=C1C2=C(CCCC2)C(=O)N1c1ccc(Cl)c(OCc2nc(-c3cc(F)cc(Br)c3)no2)c1F` [Compound A13, 2-(3-(3-(3-(3-bromo-5-fluorophenyl)-1,2,4-oxadiazole-5-yl)methoxy)-4-chloro-2-fluorophenyl)-4,5,6,7-tetrahydro-1H-isoindole-1,3(2H)-dione], the “Post-emergence herbicidal activity, Trifoliumre pensL. (grade)” value is 4 (Grade 4: the growth control rate is greater than or equal to 60% and less than 85%) in experiment [1] (dosage 2.5 g/mu); 5 (Grade 5: the growth control rate is greater than or equal to 85%) in experiment [1] (dosage 5 g/mu); 5 (Grade 5: the growth control rate is greater than or equal to 85%) in experiment [1] (dosage 10 g/mu). For the same compound, the “Post-emergence herbicidal activity, P. oleracea (grade)” value was 4 (Grade 4: the growth control rate is greater than or equal to 60% and less than 85%) in experiment [2] (dosage 2.5 g/mu); 5 (Grade 5: the growth control rate is greater than or equal to 85%) in experiment [2] (dosage 5 g/mu); 5 (Grade 5: the growth control rate is greater than or equal to 85%) in experiment [2] (dosage 10 g/mu). For the same compound, the “Post-emergence herbicidal activity, E. crusgalli (grade)” value in experiment [3] (dosage 2.5 g/mu) is 1 (Grade 1: the growth control rate is greater than or equal to 5% and less than 20%); in experiment [3] (dosage 5 g/mu), 2 (Grade 2: the growth control rate is greater than or equal to 20% and less than 40%); in experiment [3] (dosage 10 g/mu), 3 (Grade 3: the growth control rate is greater than or equal to 40% and less than 60%). Besides, the “Post-emergence herbicidal activity, A. retroflexus (grade)” value in experiment [4] (dosage 2.5 g/mu), in experiment [4] (dosage 5 g/mu) and in experiment [4] (dosage 10 g/mu) was 5 (Grade 5: the growth control rate is greater than or equal to 85%) in each case. In addition, the “Post-emergence herbicidal activity, S. viridis (grade)” value in experiment [5] (dosage 2.5 g/mu) is 2 (Grade 2: the growth control rate is greater than or equal to 20% and less than 40%); in experiment [5] (dosage 5 g/mu), 3 (Grade 3: the growth control rate is greater than or equal to 40% and less than 60%); in experiment [5] (dosage 10 g/mu) it was 4 (Grade 4: the growth control rate is greater than or equal to 60% and less than 85%). Moreover, the “Post-emergence herbicidal activity, A. theophrasti (grade)” value in experiment [6] (dosage 2.5 g/mu), in experiment [6] (dosage 5 g/mu) and in experiment [6] (dosage 10 g/mu) was 5 (Grade 5: the growth control rate is greater than or equal to 85%) each time.

Regarding `O=C1C2=C(CCCC2)C(=O)N1c1cc(OCc2nc(-c3ccc(F)c(F)c3)no2)c(Cl)cc1F` [Compound A14], the “Post-emergence herbicidal activity, Trifoliumre pensL. (grade)” value is 4 (Grade 4: the growth control rate is greater than or equal to 60% and less than 85%) in experiment [1] (dosage 2.5 g/mu); 5 (Grade 5: the growth control rate is greater than or equal to 85%) in experiment [1] (dosage 5 g/mu); 5 (Grade 5: the growth control rate is greater than or equal to 85%) in experiment [1] (dosage 10 g/mu). For the same compound, the “Post-emergence herbicidal activity, P. oleracea (grade)” value was 4 (Grade 4: the growth control rate is greater than or equal to 60% and less than 85%) in experiment [2] (dosage 2.5 g/mu); 5 (Grade 5: the growth control rate is greater than or equal to 85%) in experiment [2] (dosage 5 g/mu); 5 (Grade 5: the growth control rate is greater than or equal to 85%) in experiment [2] (dosage 10 g/mu). Besides, the “Post-emergence herbicidal activity, E. crusgalli (grade)” value in experiment [3] (dosage 2.5 g/mu) was 1 (Grade 1: the growth control rate is greater than or equal to 5% and less than 20%); in experiment [3] (dosage 5 g/mu), 2 (Grade 2: the growth control rate is greater than or equal to 20% and less than 40%); in experiment [3] (dosage 10 g/mu), 3 (Grade 3: the growth control rate is greater than or equal to 40% and less than 60%). Besides, the “Post-emergence herbicidal activity, A. retroflexus (grade)” value in experiment [4] (dosage 2.5 g/mu), in experiment [4] (dosage 5 g/mu) and in experiment [4] (dosage 10 g/mu) was 5 (Grade 5: the growth control rate is greater than or equal to 85%) each time. Also, the “Post-emergence herbicidal activity, S. viridis (grade)” value was 2 (Grade 2: the growth control rate is greater than or equal to 20% and less than 40%) in experiment [5] (dosage 2.5 g/mu); 3 (Grade 3: the growth control rate is greater than or equal to 40% and less than 60%) in experiment [5] (dosage 5 g/mu); 4 (Grade 4: the growth control rate is greater than or equal to 60% and less than 85%) in experiment [5] (dosage 10 g/mu). Also, the “Post-emergence herbicidal activity, A. theophrasti (grade)” value in experiment [6] (dosage 2.5 g/mu), in experiment [6] (dosage 5 g/mu) and in experiment [6] (dosage 10 g/mu) was 5 (Grade 5: the growth control rate is greater than or equal to 85%) each time.

As for `Cc1ccc(-c2noc(COc3cc(N4C(=O)C5=C(CCCC5)C4=O)c(F)cc3Cl)n2)c(Cl)c1` [Compound A15], the “Post-emergence herbicidal activity, Trifoliumre pensL. (grade)” value in experiment [1] (dosage 2.5 g/mu), in experiment [1] (dosage 5 g/mu) and in experiment [1] (dosage 10 g/mu) was 5 (Grade 5: the growth control rate is greater than or equal to 85%) throughout. In addition, the “Post-emergence herbicidal activity, P. oleracea (grade)” value in experiment [2] (dosage 2.5 g/mu), in experiment [2] (dosage 5 g/mu) and in experiment [2] (dosage 10 g/mu) was 5 (Grade 5: the growth control rate is greater than or equal to 85%) each time. In addition, the “Post-emergence herbicidal activity, E. crusgalli (grade)” value is 1 (Grade 1: the growth control rate is greater than or equal to 5% and less than 20%) in experiment [3] (dosage 2.5 g/mu); 2 (Grade 2: the growth control rate is greater than or equal to 20% and less than 40%) in experiment [3] (dosage 5 g/mu); 3 (Grade 3: the growth control rate is greater than or equal to 40% and less than 60%) in experiment [3] (dosage 10 g/mu). The “Post-emergence herbicidal activity, A. retroflexus (grade)” value in experiment [4] (dosage 2.5 g/mu), in experiment [4] (dosage 5 g/mu) and in experiment [4] (dosage 10 g/mu) was 5 (Grade 5: the growth control rate is greater than or equal to 85%) in each case. In addition, the “Post-emergence herbicidal activity, S. viridis (grade)” value in experiment [5] (dosage 2.5 g/mu) is 2 (Grade 2: the growth control rate is greater than or equal to 20% and less than 40%); in experiment [5] (dosage 5 g/mu), 3 (Grade 3: the growth control rate is greater than or equal to 40% and less than 60%); in experiment [5] (dosage 10 g/mu), 4 (Grade 4: the growth control rate is greater than or equal to 60% and less than 85%). In addition, the “Post-emergence herbicidal activity, A. theophrasti (grade)” value in experiment [6] (dosage 2.5 g/mu), in experiment [6] (dosage 5 g/mu) and in experiment [6] (dosage 10 g/mu) was 5 (Grade 5: the growth control rate is greater than or equal to 85%) in each case.
